NC(=O)N/N=C/c1ccc([N+](=O)[O-])o1
solubility (mole fraction)
Details | in DMF | in acetone | in acetonitrile | in ethanol | in formamide | in isopropanol | in methanol | in n-propanol | in water
278.15 K | 0.0219 | 0.000298 | 8.46e-05 | 6.97e-05 | 0.00169 | 7.04e-05 | 0.000148 | 8.53e-05 | 1.31e-05
283.15 K | 0.0227 | 0.000345 | 0.000103 | 8.33e-05 | 0.00191 | 9.57e-05 | 0.000172 | 0.000106 | 1.62e-05
288.15 K | 0.0235 | 0.000392 | 0.000123 | 0.0001 | 0.00208 | 0.000113 | 0.000201 | 0.00013 | 1.88e-05
293.15 K | 0.0246 | 0.000443 | 0.000146 | 0.000121 | 0.00239 | 0.000131 | 0.000233 | 0.000149 | 2.29e-05
298.15 K | 0.0265 | 0.000512 | 0.000176 | 0.000143 | 0.00267 | 0.000169 | 0.000282 | 0.000188 | 2.92e-05
303.15 K | 0.028 | 0.000568 | 0.000211 | 0.000175 | 0.00298 | 0.000216 | 0.000326 | 0.000236 | 3.66e-05
308.15 K | 0.0289 | 0.000647 | 0.000247 | 0.000213 | 0.00334 | 0.000262 | 0.000387 | 0.000285 | 4.5e-05
313.15 K | 0.0305 | 0.000738 | 0.000288 | 0.000253 | 0.00364 | 0.000344 | 0.00044 | 0.000368 | 5.89e-05

From BigSolDB 2.1
